SMILES strings stand for the structures.

This note sets out measurements from patent publication US20220339260A1, “METHOD FOR PRODUCING INSULIN-PRODUCING CELL USING DIHYDROINDOLIZINONE DERIVATIVES” (TOKYO INSTITUTE OF TECHNOLOGY, priority 2019, published 2022).

The assay deals with human iPS cell Toe strain. Description: Effect to promote differentiation from human iPS cells into insulin-producing cells (insulin-positive cell rate, Reference Example 1). The assay is classed as cell-based. Further details: key to Activity: the sum of activity values at the two concentrations was obviously higher than the control untreated with compounds while being lower than the positive control was expressed as +; the sum was equivalent to the positive control was expressed as ++; the sum was higher than the positive control was expressed as +++. Particulars: activity intensity: sum of activity values (increment in insulin-positive cell rate) at 2 μM and 10 μM compared with positive control (compound of Synthesis Example 1). The source says:
The evaluation system of the effect (efficacy) to promote differentiation from human iPS cells into insulin-producing cells was constructed with reference to known information (Non Patent Document 6). Further, the medium used in each differentiation stage was also produced with reference to known information (differentiation media A to E (Media A to E) described in Non Patent Document 6 were used respectively for stages 1 to 5; however, a medium free from GLP-1 receptor agonist and nicotinamide was used as differentiation medium E).
In order to evaluate the efficacy of each compound, the compound of Synthesis Example 1 was used as a positive control, and dimethylsulfoxide (DMSO) (SIGMA, D2650) with a final concentration of 0.1% was used as a control untreated with compounds. Each compound was dissolved in DMSO, and two types of compound solutions were prepared so as to have final concentrations of 2 μM and 10 μM after the compound was added to the medium. In the following evaluation, the compound solutions were added to the medium to 0.1% that is the final concentration of DMSO.
First, induction from human iPS cell Toe strain (National Institutes of Biomedical Innovation, Health and Nutrition) into cells on day 7 of culture (2 days after replacement with differentiation medium C (cells in the differentiation process from FOXA2-positive primitive gut tube cells into PDX1-positive pancreatic progenitor cells)) was performed according to the method of Non Patent Document 6 for “inducing differentiation from human iPS cells into pancreatic β cells”, and the cells were collected and thereafter stored in liquid nitrogen using Bambanker (NIPPON Genetics Co, Ltd.) at 1×10^7 cells/mL/tube, to produce a cell stock for evaluation. The cell stock was dissolved at the start of the evaluation of efficacy, suspended in differentiation medium C for stage 3 (DMEM high glucose (Life technologies, 11965092), 0.25 μM SANT-1, 0.1 μM LDN193189 (Stemgent, 04-0074), 10 μM SB431542, 2 μM Retinoic acid (Stemgent, 04-0021), 1% B27 serum free supplement (Life technologies, 17504044) and thereafter seeded in a 96-well plate (Corning, #3340) coated with Synthemax II (Corning, #5656) at 1×10^5 cells/well. After culturing for 2 days, the medium was removed, and new differentiation medium C for stage 3 with the compound or only DMSO added was added thereto at 100 μL/well. After culturing for 2 days, the medium was removed, and new differentiation medium D for stage 4 (DMEM high glucose, 0.1 μM LDN193189, 5 μM TGF-β type I receptor kinase inhibitor II (Calbiochem 616452), 0.3 μM (−)-indolactam V (Enzo life science ALX-420-011-C300), 1% B27 serum free supplement) with the compound or only DMSO added was added thereto at 100 μL/well. After culturing for 2 to 3 days, the medium was removed, and new differentiation medium E for stage 5 (GLP-1 receptor agonist and nicotinamide-free; Knockout […] (Life technologies, 12660012), 1% B27 serum free supplement) with the compound or only DMSO added was added thereto at 200 μL/well. After culturing for 2 days, the medium was removed, and a 4% paraformaldehyde phosphorus acid buffer (Wako, 163-20145) was added thereto at 150 μL/well and left standing for 30 to 60 minutes at room temperature to fix the cells. A phosphorus acid buffer (PBS) (Takara, T9181) containing 1% Triton X-100 (Sigma, T8787) was left standing for 15 minutes at room temperature, then washed with PBS-T (Takara, T9183), and was blocked for 1 hour using 20% Blocking One (Nacalai tesque, Tokyo, Japan) diluted with PBS-T at room temperature. After the removal of Blocking One, guinea pig anti-insulin antibody (Abcam, ab7842) diluted 200-fold with 20% Blocking One was added thereto at 50 μL/well, followed by standing at 4° C. overnight. […]
With `O=C1CCC(C(=O)Nc2ccc(-c3ccc(OC(F)(F)F)c(Cl)c3)cc2F)n2cccc21` (centres unmarked) [Example 79], the Activity result is “+”. As to `Cc1nc(NC(=O)C2CCC(=O)c3cccn32)sc1-c1ccc(OCc2ccccc2)c(F)c1` (centres unmarked) [Example 85], the Activity entry was “+++”. As to `CC(=O)c1ccc(-c2cnc(NC(=O)C3CCC(=O)c4cccn43)s2)cc1` (centres unmarked) [Example 57], the Activity result is recorded as “+”.

For the molecule `O=C1CCC(C(=O)Nc2ncc(-c3ccc(F)cc3)s2)n2cccc21` (centres unmarked) [Example 16], the Activity result was “++”. The entry for `O=C1CCC(C(=O)Nc2ccc(-c3ccc(OC(F)(F)F)cc3)cc2F)n2cccc21` (centres unmarked) [Example 78] is “++”; for `COC(=O)c1nc(NC(=O)C2CCC(=O)c3cccn32)sc1-c1ccc(OCC(F)(F)F)cc1` (centres unmarked) [Example 99] it is “++”.

Take `O=C1CCC(C(=O)Nc2ccc(-c3ccc4c(c3)OC(F)(F)O4)cc2)n2cccc21` (centres unmarked) [Example 74]: the Activity entry is listed as “+”. As for `Cc1nc(NC(=O)C2CCC(=O)c3cccn32)sc1-c1ccc(OC(F)(F)F)cc1` (centres unmarked) [Example 36], the entry is “+++”; as for `CC(C)COc1ccc(-c2cnc(NC(=O)C3CCC(=O)c4cccn43)s2)cc1` (centres unmarked) [Example 49], “+++”; as for `O=C1CCC(C(=O)Nc2ncc(-c3ccccc3F)s2)n2cccc21` (centres unmarked) [Example 17], “++”. As for `CC(C)Oc1ccc(-c2cnc(NC(=O)C3(C)CCC(=O)c4cccn43)s2)cc1` (centres unmarked) [Example 69], the entry is “++”; as for `O=C1CCC(C(=O)Nc2ccc(-c3ccc(OC(F)(F)F)cc3)cc2)n2c(Br)ccc21` (centres unmarked) [Example 77], “+”; as for `O=C1CCC(C(=O)Nc2nc3ccc(-c4ccc(Cl)cc4)cc3s2)n2cccc21` (centres unmarked) [Example 93], “+++”.

Consider `COCCOc1ccc(-c2cnc(NC(=O)C3CCC(=O)c4cccn43)s2)cc1` (centres unmarked) [Example 38], for which the Activity entry is “+++”. The entry for `O=C1CCC(C(=O)Nc2ncc(-c3cccc(OC(F)(F)F)c3)s2)n2cccc21` (centres unmarked) [Example 25] is “+++”; for `CC1(C(=O)Nc2ncc(-c3ccc4c(c3)OC(F)(F)O4)s2)CCC(=O)c2cccn21` (centres unmarked) [Example 68] it is “++”; for `O=C1CCC(C(=O)Nc2ncc(-c3ccc(OC(F)(F)F)cc3)s2)n2cc(Cl)cc21` (centres unmarked) [Example 64] it is “++”.

Consider `Cc1ccc(-c2cnc(NC(=O)C3CCC(=O)c4cccn43)s2)o1` (centres unmarked) [Example 54], for which the Activity entry was “+”.

With `Cc1nc(NC(=O)C2CCC(=O)c3cccn32)sc1-c1ccc(OCC(C)C)cc1` (centres unmarked) [Example 86], the Activity entry is recorded as “+++”. As for `Cc1cc(-c2ccc3nc(NC(=O)C4CCC(=O)c5cccn54)sc3c2)ccc1OC(F)(F)F` (centres unmarked) [Example 92], the entry is “+++”; as for `CC(C)(C)Oc1ccc(-c2cnc(NC(=O)C3CCC(=O)c4cccn43)s2)cc1` (centres unmarked) [Example 11], “+++”; as for `O=C1CCC(C(=O)Nc2ncc(-c3ccc(Oc4ccccc4)cc3)s2)n2cccc21` (centres unmarked) [Example 46], “+++”.

With `CN(C)C(=O)c1ccc(-c2cnc(NC(=O)C3CCC(=O)c4cccn43)s2)cc1` (centres unmarked) [Example 3], the Activity entry is listed as “+”. As for `O=C1CCC(C(=O)Nc2ncc(-c3ccc(OC(F)(F)F)cc3)s2)n2cccc21` (centres unmarked) [Example 9], the entry is “+++”; as for `CC(C)NC(=O)N1CC=C(c2cnc(NC(=O)C3CCC(=O)c4cccn43)s2)CC1` (centres unmarked) [Example 98], “++”; as for `O=C1CCC(C(=O)Nc2nc3ccc(-c4ccc(F)cc4)cc3s2)n2cccc21` (centres unmarked) [Example 94], “+++”. With `COC(=O)c1nc(NC(=O)C2CCC(=O)c3cccn32)sc1-c1ccc(OC(C)(C)C)cc1` (centres unmarked) [Example 100], the Activity result is reported as “+”. As for `Cc1cccc(-c2cnc(NC(=O)C3(C)CCC(=O)c4cccn43)s2)c1` (centres unmarked) [Example 67], the entry is “++”. The entry for `Cc1ccc(-c2ccc(-c3cnc(NC(=O)C4CCC(=O)c5cccn54)s3)cc2)cc1` (centres unmarked) [Example 23] is “+”.
